Experimental data: ChEMBL document CHEMBL1138046, “Discovery of a new boron-containing antifungal agent, 5-fluoro-1,3-dihydro-1-hydroxy-2,1- benzoxaborole (AN2690), for the potential treatment of onychomycosis” (2006)
≈ marks a conversion by molar mass, not a printed value.

Columns and labels:
Aspergillus fumigatus = experiment: Antifungal activity against Aspergillus fumigatus; format: functional
Cryptococcus neoformans = experiment: Antifungal activity against Cryptococcus neoformans; format: functional
Candida albicans = experiment: Antifungal activity against Candida albicans; format: functional
Trichophyton benhamiae = experiment: Antifungal activity against Trichophyton mentagrophytes; format: functional, Arthroderma benhamiae
Trichophyton rubrum = experiment: Antifungal activity against Trichophyton rubrum; format: functional

Row | Compound | MIC (Aspergillus fumigatus) [µg/mL] | MIC (Cryptococcus neoformans) [µg/mL] | MIC (Candida albicans) [µg/mL] | MIC (Trichophyton benhamiae) [µg/mL] | MIC (Trichophyton rubrum) [µg/mL]
1 | Fc1ccc(B2OCc3ccccc32)cc1 | 2 (≈ 9.43 µM) | 2 (≈ 9.43 µM) | 4 (≈ 18.9 µM) | 4 (≈ 18.9 µM) | 8 (≈ 37.7 µM)
2 | c1ccc(B2OCCc3ccccc32)cc1 | 16 (≈ 76.9 µM) | 16 (≈ 76.9 µM) | 8 (≈ 38.4 µM) | 8 (≈ 38.4 µM) | 8 (≈ 38.4 µM)
3 | C=CB1OCc2cc(F)ccc21 | 2 (≈ 12.3 µM) | 4 (≈ 24.7 µM) | 1 (≈ 6.17 µM) | 2 (≈ 12.3 µM) | 4 (≈ 24.7 µM)
4 | Fc1ccc2c(c1)COB2/C=C/c1ccccc1 | 1 (≈ 4.2 µM) | 0.5 (≈ 2.1 µM) | 0.5 (≈ 2.1 µM) | 2 (≈ 8.4 µM) | ≤ 1
5 | Cc1cscc1B1OCc2cc(F)ccc21 | 1 (≈ 4.31 µM) | 1 (≈ 4.31 µM) | 1 (≈ 4.31 µM) | 2 (≈ 8.62 µM) | 1 (≈ 4.31 µM)
6 | Fc1cccc(B2OCc3cc(F)ccc32)c1 | 1 (≈ 4.35 µM) | 1 (≈ 4.35 µM) | 0.5 (≈ 2.17 µM) | 2 (≈ 8.69 µM) | 1 (≈ 4.35 µM)
7 | OCc1ccc2c(c1)COB2O | > 64 | > 64 | > 64 | 64 (≈ 390 µM) | 64 (≈ 390 µM)
8 | OB1OCc2c(F)cccc21 | 32 (≈ 211 µM) | 32 (≈ 211 µM) | 64 (≈ 421 µM) | 16 (≈ 105 µM) | 16 (≈ 105 µM)
9 | CC1OB(O)c2ccc(F)cc21 (stereo not given) | 16 (≈ 96.4 µM) | 32 (≈ 193 µM) | 16 (≈ 96.4 µM) | 16 (≈ 96.4 µM) | 32 (≈ 193 µM)
10 | Fc1ccc2c(c1)COB2c1ccccc1 | 2 (≈ 9.43 µM) | 2 (≈ 9.43 µM) | 0.5 (≈ 2.36 µM) | 2 (≈ 9.43 µM) | 1 (≈ 4.72 µM)
11 | C(=C\c1ccccc1)/B1OCc2ccccc21 | 4 (≈ 18.2 µM) | 4 (≈ 18.2 µM) | 2 (≈ 9.09 µM) | 8 (≈ 36.4 µM) | 8 (≈ 36.4 µM)
12 | OB1OCc2ccc3ccccc3c21 | 32 (≈ 174 µM) | 32 (≈ 174 µM) | 32 (≈ 174 µM) | 2 (≈ 10.9 µM) | 4 (≈ 21.7 µM)
13 | OB1OCc2cc(F)c(F)cc21 | 2 (≈ 11.8 µM) | 2 (≈ 11.8 µM) | 4 (≈ 23.5 µM) | 4 (≈ 23.5 µM) | 4 (≈ 23.5 µM)
14 | OB1OCc2cccc(F)c21 | 4 (≈ 26.3 µM) | 32 (≈ 211 µM) | 32 (≈ 211 µM) | 16 (≈ 105 µM) | 16 (≈ 105 µM)
15 | OB1OCc2cc(C(F)(F)F)ccc21 | 8 (≈ 39.6 µM) | 16 (≈ 79.2 µM) | 16 (≈ 79.2 µM) | 8 (≈ 39.6 µM) | 8 (≈ 39.6 µM)
16 | Fc1ccc2c(c1)COB2c1cccnc1 | 16 (≈ 75.1 µM) | 16 (≈ 75.1 µM) | 4 (≈ 18.8 µM) | 32 (≈ 150 µM) | 16 (≈ 75.1 µM)
17 | Cc1cccc(B2OCc3cc(F)ccc32)c1 | 0.5 (≈ 2.21 µM) | 0.5 (≈ 2.21 µM) | 1 (≈ 4.42 µM) | 4 (≈ 17.7 µM) | 2 (≈ 8.85 µM)
